Measurements taken from ChEMBL document CHEMBL1124073, “Synthesis and copper-dependent antimycoplasmal activity of 1-amino-3-(2-pyridyl)isoquinoline derivatives. 1. Amides” (1988).
In brackets after ≈: the same amount, converted by molar mass.

Key:
[1] = test system: Mycoplasmoides gallisepticum; experiment: Antimycoplasmal activity against Mycoplasma gallisepticum K514 without the extra addition of copper; assay type: functional
[2] = test system: Mycoplasmoides gallisepticum; experiment: Antimycoplasmal activity against Mycoplasma gallisepticum K514 with the extra addition of copper (40 uM); assay type: functional

Row | MIC [1] [µM] | MIC [2] [µM] | Compound
1 | > 25 | 1.9 (≈ 0.5 µg/mL) | CC(=O)Nc1nc(-c2ccccn2)cc2ccccc12
2 | > 160 | 0.64 (≈ 0.252 µg/mL) | O=C(Nc1nc(-c2ccccn2)cc2ccccc12)c1ccc(Cl)c(Cl)c1
3 | > 23 | 0.18 (≈ 0.064 µg/mL) | COc1cccc(C(=O)Nc2nc(-c3ccccn3)cc3ccccc23)c1
4 | > 25 | 0.78 (≈ 0.276 µg/mL) | Cc1cccc(C)c1C(=O)Nc1nc(-c2ccccn2)cc2ccccc12
5 | 400 | – | CUPRIC SULFATE
6 | > 160 | 0.19 (≈ 0.0645 µg/mL) | Cc1ccc(C(=O)Nc2nc(-c3ccccn3)cc3ccccc23)cc1
7 | > 100 | 0.39 (≈ 0.138 µg/mL) | Cc1cc(C)cc(C(=O)Nc2nc(-c3ccccn3)cc3ccccc23)c1
8 | 452 (≈ 100 µg/mL) | 0.45 (≈ 0.0996 µg/mL) | Nc1nc(-c2ccccn2)cc2ccccc12
9 | > 100 | 0.39 (≈ 0.138 µg/mL) | Cc1ccc(C(=O)Nc2nc(-c3ccccn3)cc3ccccc23)c(C)c1
10 | > 100 | 0.39 (≈ 0.138 µg/mL) | Cc1ccc(C)c(C(=O)Nc2nc(-c3ccccn3)cc3ccccc23)c1
11 | > 25 | 0.22 (≈ 0.0641 µg/mL) | CC(C)C(=O)Nc1nc(-c2ccccn2)cc2ccccc12
12 | > 160 | 0.35 (≈ 0.126 µg/mL) | O=C(Nc1nc(-c2ccccn2)cc2ccccc12)c1ccc(Cl)cc1
13 | > 23 | 0.09 (≈ 0.0305 µg/mL) | Cc1cccc(C(=O)Nc2nc(-c3ccccn3)cc3ccccc23)c1
14 | 12.3 (≈ 4.01 µg/mL) | 0.1 (≈ 0.0325 µg/mL) | O=C(Nc1nc(-c2ccccn2)cc2ccccc12)c1ccccc1
15 | > 100 | 0.39 (≈ 0.138 µg/mL) | Cc1ccc(C(=O)Nc2nc(-c3ccccn3)cc3ccccc23)cc1C
16 | > 160 | 0.18 (≈ 0.064 µg/mL) | COc1ccc(C(=O)Nc2nc(-c3ccccn3)cc3ccccc23)cc1
17 | > 25 | 0.21 (≈ 0.0641 µg/mL) | CC(C)(C)C(=O)Nc1nc(-c2ccccn2)cc2ccccc12
18 | > 23 | 0.35 (≈ 0.126 µg/mL) | O=C(Nc1nc(-c2ccccn2)cc2ccccc12)c1cccc(Cl)c1
19 | > 170 | 0.36 (≈ 0.125 µg/mL) | CCCCC(CC)C(=O)Nc1nc(-c2ccccn2)cc2ccccc12 (stereo not drawn)
20 | 0.1 (≈ 0.0916 µg/mL) | 0.1 (≈ 0.0916 µg/mL) | CC[C@H]1OC(=O)C[C@@H](O)[C@H](C)[C@@H](O[C@@H]2O[C@H](C)[C@@H](O[C@H]3C[C@@](C)(O)[C@@H](O)[C@H](C)O3)[C@H](N(C)C)[C@H]2O)[C@@H](CC=O)C[C@@H](C)C(=O)/C=C/C(C)=C/[C@@H]1CO[C@@H]1O[C@H](C)[C@@H](O)[C@@H](OC)[C@H]1OC [TYLOSIN]
21 | > 25 | 0.45 (≈ 0.125 µg/mL) | CCC(=O)Nc1nc(-c2ccccn2)cc2ccccc12
22 | > 170 | 0.34 (≈ 0.128 µg/mL) | CCCCCCCCCC(=O)Nc1nc(-c2ccccn2)cc2ccccc12
